Test systems include TK-10 renal; LOX IMVI melanoma; HOP-92 NSCLC; HL-60(TB) leukemia; NCI/ADR-RES ovarian; HS 578T breast; NCI-H522 lung; HCT-116 colon; NCI-H226 lung; OVCAR-3 ovarian; PC-3 prostate; HCC-2998 colon; MOLT-4 leukemia; CCRF-CEM leukemia; CAKI-1 renal; MCF7 breast; DU-145 prostate; HT29 colon; MALME-3M melanoma; T-47D breast.
Common to all, as to experiment: NCI tumour cell line growth inhibition, 48 h

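Each compound was tested at five concentrations against cells in 96-well plates for 48 hours. The concentration for full growth arrest is given as TGI.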

On to `COc1cc(OC)c2c(=O)c3cccc(C)c3n(C)c2c1`, for which the TGI with TK-10 renal, with LOX IMVI melanoma, with HOP-92 NSCLC, in the experiment on HL-60(TB) leukemia, in the experiment with NCI/ADR-RES ovarian and in the experiment on HS 578T breast was above 100 µM throughout. The TGI with NCI-H522 lung, in the experiment with HCT-116 colon, in the experiment on NCI-H226 lung, in the experiment on OVCAR-3 ovarian, with PC-3 prostate and in the experiment on HCC-2998 colon was above 100 µM throughout. The TGI with MOLT-4 leukemia, in the experiment on CCRF-CEM leukemia, with CAKI-1 renal, in the experiment on MCF7 breast, in the experiment with DU-145 prostate and in the experiment with HT29 colon was above 100 µM throughout. In addition, in the experiment with MALME-3M melanoma, the TGI was above 100 µM.

As for `Cc1cc(O)c(/C=N/C(=S)Nc2ccc(S(N)(=O)=O)cc2)c(=O)o1`, the TGI in the experiment with TK-10 renal, in the experiment with LOX IMVI melanoma, in the experiment with HOP-92 NSCLC, in the experiment on HL-60(TB) leukemia, with T-47D breast and in the experiment on NCI/ADR-RES ovarian was above 100 µM each time. The TGI in the experiment with HCT-116 colon, with NCI-H226 lung, in the experiment with OVCAR-3 ovarian, with HCC-2998 colon, with MOLT-4 leukemia and with CAKI-1 renal was above 100 µM in each case. Further, the TGI with MCF7 breast, in the experiment with DU-145 prostate and in the experiment with HT29 colon was above 100 µM throughout.

Consider `COC(=O)C(=O)C(C(=O)C(=O)Nc1ccc(C)cc1C)c1nc2ccc(Cl)cc2[nH]c1=O` (stereo not drawn), for which the TGI in the experiment on TK-10 renal, in the experiment on LOX IMVI melanoma, in the experiment with HOP-92 NSCLC, with HL-60(TB) leukemia, in the experiment with NCI/ADR-RES ovarian and with HS 578T breast was above 100 µM throughout. The TGI in the experiment with NCI-H522 lung, in the experiment with HCT-116 colon, with NCI-H226 lung, in the experiment on OVCAR-3 ovarian, in the experiment with PC-3 prostate and in the experiment with HCC-2998 colon was above 100 µM in each case. For the same molecule, the TGI in the experiment with MOLT-4 leukemia, in the experiment on CCRF-CEM leukemia, with CAKI-1 renal, with MCF7 breast, in the experiment on DU-145 prostate and with HT29 colon was above 100 µM throughout.

Take `Cc1c(/C=N/NC(=S)N2CCCCC2)c(=O)n(-c2ccccc2)n1C`: the TGI was above 100 µM in the experiment with TK-10 renal; above 100 µM with LOX IMVI melanoma; above 100 µM in the experiment on HOP-92 NSCLC; 95 µM in the experiment on HL-60(TB) leukemia; above 100 µM in the experiment on NCI/ADR-RES ovarian; above 100 µM in the experiment on HS 578T breast. In addition, the TGI in the experiment on NCI-H522 lung, in the experiment with HCT-116 colon, with NCI-H226 lung, with OVCAR-3 ovarian, in the experiment on PC-3 prostate and in the experiment on HCC-2998 colon was above 100 µM each time. Moreover, the TGI in the experiment with MOLT-4 leukemia, with CCRF-CEM leukemia, with CAKI-1 renal, with MCF7 breast, in the experiment with DU-145 prostate and with HT29 colon was above 100 µM throughout. In the experiment with MALME-3M melanoma, this molecule showed a TGI above 100 µM.

Take `CC(=O)[C@H]1[C@H](O)C[C@@]2(C)[C@@H]3CCc4cc(O)c(OC5OC(CO)C(O)C(O)C5O)cc4C3(C)C(=O)C[C@]12C` (stereo partly drawn): the TGI in the experiment with TK-10 renal, in the experiment with LOX IMVI melanoma, in the experiment with HOP-92 NSCLC, in the experiment on HL-60(TB) leukemia, in the experiment on T-47D breast and in the experiment with NCI/ADR-RES ovarian was above 100 µM each time. Further, the TGI with NCI-H522 lung, in the experiment on HCT-116 colon, with NCI-H226 lung, with OVCAR-3 ovarian, with PC-3 prostate and in the experiment on HCC-2998 colon was above 100 µM each time. Besides, the TGI with MOLT-4 leukemia, in the experiment on CCRF-CEM leukemia, in the experiment on CAKI-1 renal, with MCF7 breast, in the experiment with DU-145 prostate and in the experiment on HT29 colon was above 100 µM each time. This molecule also registered a TGI in the experiment on MALME-3M melanoma above 100 µM.

`C1CSCC2(COC2)CSCCSCC2(COC2)CS1`: the TGI in the experiment with TK-10 renal, in the experiment on LOX IMVI melanoma, with HOP-92 NSCLC, in the experiment with HL-60(TB) leukemia, in the experiment on T-47D breast and with NCI/ADR-RES ovarian was above 100 µM each time. Also, the TGI in the experiment on NCI-H522 lung, with HCT-116 colon, in the experiment with OVCAR-3 ovarian, in the experiment on PC-3 prostate, with HCC-2998 colon and with MOLT-4 leukemia was above 100 µM in each case. For the same molecule, the TGI in the experiment on CCRF-CEM leukemia, in the experiment with MCF7 breast, in the experiment with DU-145 prostate and with HT29 colon was above 100 µM in each case.

For `O=c1c(Sc2c(SCSc3cnc4ccccc4c3Sc3c[nH]c4ccccc4c3=O)cnc3ccccc23)c[nH]c2ccccc12`, the TGI in the experiment on TK-10 renal, in the experiment on LOX IMVI melanoma, in the experiment with HOP-92 NSCLC, in the experiment with HL-60(TB) leukemia, with T-47D breast and in the experiment on NCI/ADR-RES ovarian was above 100 µM each time. In addition, the TGI with HS 578T breast, in the experiment on NCI-H522 lung, with HCT-116 colon, with OVCAR-3 ovarian, in the experiment with HCC-2998 colon and with MOLT-4 leukemia was above 100 µM throughout. In addition, the TGI with CCRF-CEM leukemia, in the experiment with CAKI-1 renal, in the experiment on DU-145 prostate and in the experiment on HT29 colon was above 100 µM in each case.

Take `CC1=CCC(C(C)(C)NC(=O)c2ccccc2)C/C1=N/O` (stereo not drawn): the TGI with TK-10 renal, in the experiment with LOX IMVI melanoma, in the experiment with HOP-92 NSCLC, in the experiment on HL-60(TB) leukemia, in the experiment on T-47D breast and in the experiment on NCI-H522 lung was above 100 µM in each case. Further, the TGI with HCT-116 colon, in the experiment with OVCAR-3 ovarian, with PC-3 prostate, in the experiment with HCC-2998 colon, in the experiment on MOLT-4 leukemia and with CCRF-CEM leukemia was above 100 µM in each case. Besides, the TGI in the experiment on MCF7 breast, in the experiment on DU-145 prostate and in the experiment with HT29 colon was above 100 µM each time.

As to `O=[N+]1[C@H](c2ccccc2)[C@H](c2ccccc2)N1[O-]`, the TGI with TK-10 renal is 30.9 µM; in the experiment on LOX IMVI melanoma, 29.2 µM; in the experiment with HOP-92 NSCLC it was 30.2 µM; in the experiment on HL-60(TB) leukemia, 5.48 µM; with NCI/ADR-RES ovarian, 35.5 µM; in the experiment with HS 578T breast, above 100 µM. Also, the TGI was determined as 24.2 µM with NCI-H522 lung; 30.6 µM with HCT-116 colon; 38.9 µM in the experiment on NCI-H226 lung; 30.1 µM with OVCAR-3 ovarian; 31.6 µM in the experiment with PC-3 prostate; 55.2 µM with MOLT-4 leukemia. The TGI worked out at 36.3 µM in the experiment on CCRF-CEM leukemia; 19.7 µM in the experiment with CAKI-1 renal; 30.5 µM with MCF7 breast; 30.1 µM with DU-145 prostate; 33.1 µM with HT29 colon; 32 µM in the experiment with MALME-3M melanoma.

As to `COc1cc(C2c3cc4c(cc3C(=O)C3CCC(=O)N32)OCO4)cc(OC)c1O` (stereo not drawn), the TGI with HOP-92 NSCLC, in the experiment with HL-60(TB) leukemia, in the experiment with T-47D breast, in the experiment with NCI/ADR-RES ovarian, in the experiment on HCT-116 colon and with NCI-H226 lung was above 50 µM in each case. Besides, the TGI in the experiment on OVCAR-3 ovarian, in the experiment on PC-3 prostate, in the experiment with MOLT-4 leukemia, with CCRF-CEM leukemia, in the experiment on MCF7 breast and in the experiment with DU-145 prostate was above 50 µM in each case. For the same molecule, the TGI with HT29 colon was above 50 µM.

Consider `CO/C(=N\N=C\c1ccc(Cl)c(Cl)c1)c1ccncc1`, for which the TGI in the experiment with TK-10 renal, in the experiment with LOX IMVI melanoma, in the experiment on HOP-92 NSCLC, in the experiment with HL-60(TB) leukemia, with T-47D breast and in the experiment on NCI/ADR-RES ovarian was above 10 µM each time. The TGI in the experiment with HCT-116 colon, with NCI-H226 lung, in the experiment with OVCAR-3 ovarian, in the experiment on PC-3 prostate, in the experiment on HCC-2998 colon and with MOLT-4 leukemia was above 10 µM in each case. Further, the TGI with CCRF-CEM leukemia, with CAKI-1 renal, in the experiment on MCF7 breast and in the experiment on MALME-3M melanoma was above 10 µM throughout.

For `C[C@@H]1CC[C@@H]2[C@@H](C1)O[C@@H]([C@@H](C)OCc1ccccc1)SC2(C)C`, the TGI turned out to be 55.4 µM in the experiment with TK-10 renal; 41.9 µM in the experiment on LOX IMVI melanoma; 32.4 µM in the experiment with T-47D breast; 40.2 µM in the experiment on NCI/ADR-RES ovarian; 31.1 µM in the experiment with NCI-H522 lung; 34.5 µM with HCT-116 colon. The TGI in the experiment on NCI-H226 lung came to 34.5 µM; with PC-3 prostate, 45.4 µM; with HCC-2998 colon it was 33.7 µM; in the experiment with MOLT-4 leukemia, 32.3 µM; in the experiment on CCRF-CEM leukemia it was 34.5 µM; in the experiment with CAKI-1 renal, 29 µM. The TGI with MCF7 breast is 35.3 µM; in the experiment with DU-145 prostate, above 100 µM; in the experiment on HT29 colon, 36.7 µM; with MALME-3M melanoma it was 37.9 µM.

As for `COc1ccccc1N/C(SCc1ccccc1)=C(/C(Cl)=C(Cl)Cl)[N+](=O)[O-]`, the TGI is 65.6 µM in the experiment with T-47D breast; 78.8 µM in the experiment on NCI/ADR-RES ovarian; above 100 µM in the experiment on HCT-116 colon; above 100 µM in the experiment on NCI-H226 lung; 40.7 µM in the experiment with OVCAR-3 ovarian; above 100 µM in the experiment with PC-3 prostate. In addition, the TGI in the experiment on MOLT-4 leukemia is above 100 µM; in the experiment on CCRF-CEM leukemia it was above 100 µM; in the experiment with CAKI-1 renal, 74.9 µM; in the experiment on MCF7 breast it was above 100 µM; in the experiment on DU-145 prostate, above 100 µM; in the experiment on HT29 colon, 42.4 µM. The same molecule displayed a TGI in the experiment with MALME-3M melanoma of 38.7 µM.

The values are drawn from PubChem BioAssay (NCI).
